Source: patent US8853227B2, “Methotrexate adjuvants to reduce toxicity and methods for using the same” (Tosk, Incorporated, priority 2008, dated 2014)

How the values were obtained:
Drosophila melanogaster = assay: Fly Study I (protection from MTX-induced lethality); assay type: in vivo; conditions: for Flies Alive (Number): Fly Study I method, test compound + MTX (MTX Alone: no adjuvant), Table 3
Protocol: In this study, Drosophila melanogaster eggs (50 eggs per vial) were treated with either 0.005 mg TK-112690+0.4 mg MTX (Group 1), 0.01 mg TK-112690+0.4 mg MTX (Group 2), 0.04 mg TK-112690+0.4 mg MTX (Group 3), 0.1 mg TK-112690+0.4 mg MTX (Group 4), 0.4 mg MTX alone (Group 5) or saline blank (Group 6). Two vials of eggs for each dose group were evaluated for viability (viable flies plus pupae).
The efficacy of cancer chemotherapy can be improved if agents are available to reduce the adverse events associated with treatment with cytotoxic agents. To this end, Drosophila melanogaster (commonly know as the fruit fly) is an ideal organism to screen chemical compounds for such side-effect-reducing agents. This study is aimed at finding a dose of a 2,2′-anhydropyrimidine test article that protects against MTX-induced lethality in insects.
Increasing amounts of a 2,2′-anhydropyrimidine test article (typically 0.03 to 0.1 mg) are mixed in an aqueous solution with 0.3 (or 0.4) mg MTX. Four milliliters (mL) of a 2,2′-anhydropyrimidine test article+MTX solutions are added to an appropriate amount of instant fly medium. Fruit fly eggs are added to a 2,2′-anhydropyrimidine test article+MTX treated medium and incubated for up to 31 days. After the 31 day incubation, each assay is scored by the number of mature fly and pupae per vial.
The assays are set up in clear sterile polystyrene narrow diameter vials from Applied Scientific (Hampton, N.H.). Vials are stored in trays and incubated in a darkened 25° C. incubator.
Reagents and materials used are: 50 mg/mL MTX in H2O (pH 8), 20 mg/mL of the 2,2′-anhydropyrimidine test article in H2O, water, sterile polystyrene narrow diameter vials from Applied Scientific, Instant Drosophila Food Medium, Oregon-R Drosophila melanogaster, 25° C. incubator, and 15 mL polystyrene conical tubes
Each assay is performed in a separate fly vial. Increasing amounts of a 2,2′-anhydropyrimidine (0.005 to 1.0 mg) are tested for MTX side-effect-reduction on fly eggs. Amounts of the 2,2′-anhydropyrimidine test article are drawn from a 20 mg/mL stock solution dissolved in water. Nine mL of the 2,2′-anhydropyrimidine+0.3 (or 0.4) mg MTX solutions are pre-mixed with water in a 15 mL conical tube. Duplicate assays receive 4 mL of the 2,2′-anhydropyrimidine test article+0.3 (or 0.4) mg MTX solutions. Pre-measured amounts of instant drosophila medium are added to each assay to achieve optimal hydration level. Controls are (1) 4 mL water alone and (2) 0.3 (or 0.4) mg MTX alone. Precisely 50 fly eggs aged for ˜18 hours are added to each assay. Assays are capped with a fitted plug and incubated for 30 days in a darkened 25° C. incubator. Assays are scored by the number of dead pupae or adult flies per vial.

[1] = system: UPase knockout (19519) Drosophila melanogaster; assay: Fly Study II, MTX lethality in UPase knockout flies; assay type: in vivo
Protocol: Embryos of UPase knockout (19519) Drosophila melanogaster were orally exposed to a dose range of MTX doses in food admix. Embryos of Wild-type (Oregon-R) were orally exposed to the same dose range of MTX in presence and absence of 0.04 mg TK-112690. Scoring was based on life or death 15 days after initiation of MTX exposure. […] Wild-type D. melanogaster are sensitive to lethal effects of 0.1 mg MTX.
The aim of this study was to evaluate the lethal effects of a range (0.001, 0.01, 0.05, 0.1, 0.2, 0.4 mg) of doses of orally fed MTX in wild-type (Ore-R) and UPase mutant Drosophila melanogaster. Embryos of UPase knockout (19519) Drosophila melanogaster were orally exposed to a dose range of MTX (0.001, 0.01, 0.05, 0.1, 0.2, 0.4 mg) in food admix. Embryos of Wild-type (Oregon-R) were orally exposed to the same dose range of MTX in presence and absence of 0.04 mg TK-112690. Scoring was based on life or death 15 days after initiation of MTX exposure.

| SMILES | effect of MTX on lethality in the flies (Drosophila melanogaster; 0.4 mg MTX alone vs saline, p<0.01) | Flies Alive (Number) (Drosophila melanogaster) | sensitivity of UPase knockout flies to lethal effects of MTX ([1]; MTX 0.001-0.4 mg oral, 15 days) | protection from MTX lethality in flies (viable flies plus pupae) (Drosophila melanogaster; 0.005 to 0.1 mg TK-112690 + 0.4 mg MTX, p<0.01 vs MTX alone or saline) | added protection from methotrexate toxicities by TK-112690 in UPase mutant flies ([1]; UPase mutant flies, dose range of methotrexate) |
| --- | --- | --- | --- | --- | --- |
| CN(Cc1cnc2nc(N)nc(N)c2n1)c1ccc(C(=O)N[C@@H](CCC(=O)O)C(=O)O)cc1 [MTX, N-[4-[[(2,4-diamino-6-pteridinyl)methyl]methylamino]benzoyl]-L-glutamic acid, reference compound] | highly significant | 0 | resistant to lethal effects | – | – |
| Cc1cn2c(nc1=O)O[C@H]1[C@H](O)[C@@H](CO)O[C@H]12 [TK-112690, 2,2′-anhydro-5-methyluridine] | – | 8 | – | highly significant | does not provide added protection |
